Entries after “also recorded” stand apart in the source; their conditions may differ.
Experiments:
[1] = RLM stability assay, single time point; settings: single-point (15 min) measurement; >30 min is highest estimable
[2] = system: tumor LDH activity (A673 flank xenograft); assay: In vivo LDHA activity in A673 xenograft tumor mouse model; settings: single IV 50 mg/kg, A673 xenograft mice
[3] = target: LDHA with C-terminal HiBiT fusion tag (Homo sapiens, UniProt P00338); assay: SplitLuc CETSA; type: cell-based
[4] = Kinetic solubility assay; type: physicochemical; settings: PBS buffer
[5] = system: MiaPaCa-2 cells; assay: Cellular lactate production assay in MiaPaCa-2 cells; type: cell-based; settings: Homo sapiens, MIA PaCa-2, 0.5 h, read-out: MiaPaCa-2 cells lactate inh. IC50
[6] = system: A673 cells; assay: Cytotoxicity assay in A673 cells; type: cell-based, human; settings: Homo sapiens, A673, 48 h, read-out: A673 cells Cytotox. IC50
[7] = system: MiaPaCa-2 cells; assay: Cytotoxicity assay in MiaPaCa-2 cells; type: cell-based; settings: Homo sapiens, MIA PaCa-2, 48 h, read-out: MiaPaCa-2 cells Cytotox. IC50
[8] = system: A673 cells; assay: Cellular lactate production assay in A673 cells; type: cell-based, human; settings: Homo sapiens, A673, 0.5 h, read-out: A673 cells lactate inh. IC50
[9] = target: LDHA (Homo sapiens, UniProt P00338); assay: Biochemical LDHA inhibition assay
[10] = Mouse pharmacokinetic studies; type: in vivo, CD1 mice; settings: male, CD1, mouse, plasma, iv, 10 mg/kg
[11] = target: T1, CYP450 2B6 (Homo sapiens, UniProt P20813); assay: CYP450 inhibition, 2B6; type: in vitro ADME
T1 sequence (P20813 1-491): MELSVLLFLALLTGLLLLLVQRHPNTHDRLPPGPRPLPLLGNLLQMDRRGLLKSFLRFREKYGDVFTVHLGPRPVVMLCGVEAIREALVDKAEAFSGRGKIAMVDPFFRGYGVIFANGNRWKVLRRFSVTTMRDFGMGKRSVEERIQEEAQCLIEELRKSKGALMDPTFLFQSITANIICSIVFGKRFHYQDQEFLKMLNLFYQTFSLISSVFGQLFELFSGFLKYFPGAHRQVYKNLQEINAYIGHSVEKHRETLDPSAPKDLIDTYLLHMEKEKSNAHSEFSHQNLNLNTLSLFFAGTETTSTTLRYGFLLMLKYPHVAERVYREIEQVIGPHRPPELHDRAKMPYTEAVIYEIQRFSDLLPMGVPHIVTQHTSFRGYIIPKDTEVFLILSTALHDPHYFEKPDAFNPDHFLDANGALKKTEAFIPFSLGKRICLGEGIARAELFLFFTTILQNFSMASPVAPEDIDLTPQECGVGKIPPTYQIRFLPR

[12] = BBB-PAMPA permeability assay; type: in vitro ADME; settings: pH 7.4
[13] = target: T2, CYP450 2C8 (Homo sapiens, UniProt P10632); assay: CYP450 inhibition, 2C8; type: in vitro ADME
T2 sequence (P10632 1-490): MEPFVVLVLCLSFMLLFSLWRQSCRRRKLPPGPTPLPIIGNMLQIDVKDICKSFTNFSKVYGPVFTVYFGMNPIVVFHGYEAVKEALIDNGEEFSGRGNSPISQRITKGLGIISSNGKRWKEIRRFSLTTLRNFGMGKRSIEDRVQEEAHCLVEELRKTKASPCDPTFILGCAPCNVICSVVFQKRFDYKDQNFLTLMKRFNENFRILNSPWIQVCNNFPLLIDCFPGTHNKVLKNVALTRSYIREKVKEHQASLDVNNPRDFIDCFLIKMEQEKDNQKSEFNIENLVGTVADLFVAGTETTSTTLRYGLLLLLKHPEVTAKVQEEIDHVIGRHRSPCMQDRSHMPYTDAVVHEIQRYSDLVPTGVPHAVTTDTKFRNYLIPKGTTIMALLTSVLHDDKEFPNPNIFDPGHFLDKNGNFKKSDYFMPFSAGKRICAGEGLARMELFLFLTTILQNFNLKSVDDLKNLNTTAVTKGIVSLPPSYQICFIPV

[14] = Metabolic stability in hepatocytes; type: in vitro ADME, and mouse; settings: rat, dog, mouse
[15] = Liver cytosolic stability; type: in vitro ADME, and rat; settings: human, mouse, rat, liver cytosol
[16] = system: CYP; assay: CYP induction; type: in vitro ADME; settings: at 10 μM
[17] = Metabolite ID; type: in vitro ADME; settings: also in the presence of GSH
[18] = Ames assay

| Compound | IC50 [3] [nM] | aq solubility at pH 7.4 [4] | IC50 [5] [nM] | IC50 [6] [nM] | IC50 [7] [nM] | IC50 [8] [nM] | IC50 [9] [nM] | also measured |
| --- | --- | --- | --- | --- | --- | --- | --- | --- |
| CCCC#Cc1cc(-c2nn(-c3nc(C(=O)O)cs3)c(CC3CC3)c2Cc2ccc(S(N)(=O)=O)c(F)c2)ccc1F [Compound 14, 2-(5-(Cyclopropylmethyl)-3-(4-fluoro-3-(pent-1-yn-1-yl)phenyl)-4-(3-fluoro-4-sulfamoylbenzyl)-1H-pyrazol-1-yl)thiazole-4-carboxylic Acid] |  |  |  |  |  |  |  | RLM stability T1/2 [1]: metabolized quickly; effect on LDH activity in tumors (in words) [2]: less effects |
| CCCCC#Cc1cc(-c2nn(-c3nc(C(=O)O)cs3)c(CC3CC3)c2Cc2ccc(S(N)(=O)=O)c(F)c2)ccc1F [Compound 15, 2-(5-(Cyclopropylmethyl)-3-(4-fluoro-3-(hex-1-yn-1-yl)phenyl)-4-(3-fluoro-4-sulfamoylbenzyl)-1H-pyrazol-1-yl)thiazole-4-carboxylic Acid] |  |  |  |  |  |  |  | RLM stability T1/2 [1]: metabolized quickly |
| CC1(C#Cc2cc(-c3nn(-c4nc(C(=O)O)cs4)c(CC4CC4)c3Cc3ccc(S(N)(=O)=O)c(F)c3)ccc2F)COC1 [Compound 26, 2-(5-(Cyclopropylmethyl)-3-(4-fluoro-3-((3-methyloxetan-3-yl)-ethynyl)phenyl)-4-(3-fluoro-4-sulfamoylbenzyl)-1H-pyrazol-1-yl)-thiazole-4-carboxylic Acid] | 84 | significantly diminished | 898 | 1180 | 1240 | 1050 | 10 |  |
| NS(=O)(=O)c1ccc(Cc2c(-c3ccc(F)c(C#CC4(F)CCOC4)c3)nn(-c3nc(C(=O)O)cs3)c2CC2CC2)cc1F (stereo not shown) [Compound 30, 2-(5-(Cyclopropylmethyl)-3-(4-fluoro-3-((3-fluorotetrahydrofuran-3-yl)ethynyl)phenyl)-4-(3-fluoro-4-sulfamoylbenzyl)-1H-pyrazol-1-yl)thiazole-4-carboxylic Acid] | 201 | significantly diminished | 867 | 1050 | 882 | 1060 | 1 |  |
| NS(=O)(=O)c1ccc(Cc2c(-c3ccc(F)c(C#CC4(O)CCOC4)c3)nn(-c3nc(C(=O)O)cs3)c2CC2CC2)cc1F (stereo not shown) [Compound 31, 2-(5-(Cyclopropylmethyl)-3-(4-fluoro-3-((3-hydroxytetrahydrofuran-3-yl)ethynyl)phenyl)-4-(3-fluoro-4-sulfamoylbenzyl)-1H-pyrazol-1-yl)thiazole-4-carboxylic Acid] | 815 |  | 3870 | 2640 | 1740 | 5940 | 5 |  |
| NS(=O)(=O)c1ccc(Cc2c(-c3ccc(F)c(C#CCN4CCCC4)c3)nn(-c3nc(C(=O)O)cs3)c2CC2CC2)cc1F [Compound 39, 2-(5-(Cyclopropylmethyl)-3-(4-fluoro-3-(3-(pyrrolidin-1-yl)prop-1-yn-1-yl)phenyl)-4-(3-fluoro-4-sulfamoylbenzyl)-1H-pyrazol-1-yl)-thiazole-4-carboxylic Acid] |  | significantly diminished |  |  |  |  |  |  |
| Cc1cnc(C#Cc2cc(-c3nn(-c4nc(C(=O)O)cs4)c(CC4CC4)c3Cc3ccc(S(N)(=O)=O)c(F)c3)ccc2F)s1 [Compound 47, 2-(5-(Cyclopropylmethyl)-3-(4-fluoro-3-((5-methylthiazol-2-yl)-ethynyl)phenyl)-4-(3-fluoro-4-sulfamoylbenzyl)-1H-pyrazol-1-yl)-thiazole-4-carboxylic Acid] |  | significantly diminished |  |  |  |  |  | clearance at 24 h [10]: 128 mL/min/kg; effect on LDH activity in tumors (in words) [2]: less effects |
| Cn1cncc1C#Cc1cc(-c2nn(-c3nc(C(=O)O)cs3)c(CC3CC3)c2Cc2ccc(S(N)(=O)=O)c(F)c2)ccc1F [Compound 48, 2-(5-(Cyclopropylmethyl)-3-(4-fluoro-3-((1-methyl-1H-imidazole-5-yl)ethynyl)phenyl)-4-(3-fluoro-4-sulfamoylbenzyl)-1H-pyrazol-1-yl)thiazole-4-carboxylic Acid] |  | significantly diminished |  |  |  |  |  |  |
| Cc1ccc(C#Cc2cccc(-c3nn(-c4nc(C(=O)O)cs4)c(CC4CC4)c3Cc3ccc(S(N)(=O)=O)c(F)c3)c2)s1 [Compound 52, 2-(5-(Cyclopropylmethyl)-4-(3-fluoro-4-sulfamoylbenzyl)-3-(3((5-methylthiophen-2-yl)-ethynyl)phenyl)-1H-pyrazol-1-yl)thiazole4-carboxylic Acid] |  |  |  |  |  |  |  | IC50 [11]: 14000 nM; PAMPA-BBB permeability [12]: low permeability; IC50 [13]: 7500 nM; clearance at 24 h [10]: 10.4 mL/min/kg; half-life [14]: > 2.5 h; effect on LDH activity in tumors (in words) [2]: significantly reduced; half-life [15]: > 2 h; CYP induction [16]: no induction at 10 μM; metabolite ID (in vitro) [17]: no significant phase I or II metabolites; Ames [18]: not active; also recorded: negative |
| Cc1nc(C#Cc2cccc(-c3nn(-c4nc(C(=O)O)cs4)c(CC4CC4)c3Cc3ccc(S(N)(=O)=O)c(F)c3)c2)cs1 [Compound 65, 2-(5-(Cyclopropylmethyl)-4-(3-fluoro-4-sulfamoylbenzyl)-3-(3-((2-methylthiazol-4-yl)ethynyl)phenyl)-1H-pyrazol-1-yl)thiazole-4-carboxylic Acid] |  | significantly diminished |  |  |  |  |  |  |
| Cc1cnc(C#Cc2cccc(-c3nn(-c4nc(C(=O)O)cs4)c(CCC4CC4)c3Cc3ccc(S(N)(=O)=O)c(F)c3)c2)s1 [Compound 80, 2-(5-(2-Cyclopropylethyl)-4-(3-fluoro-4-sulfamoylbenzyl)-3-(3((5-methylthiazol-2-yl)ethynyl)phenyl)-1H-pyrazol-1-yl)thiazole-4-carboxylic Acid] |  | significantly diminished |  |  |  |  |  |  |
| Cc1ccc(C#Cc2cccc(-c3nn(-c4nc(C(=O)O)cs4)c(C4CC45CC5)c3Cc3ccc(S(N)(=O)=O)c(F)c3)c2)s1 (stereo not shown) [Compound 87, 2-(4-(3-Fluoro-4-sulfamoylbenzyl)-3-(3-((5-methylthiophen-2-yl)ethynyl)phenyl)-5-(spiro[2.2]pentan-1-yl)-1H-pyrazol-1-yl)-thiazole-4-carboxylic Acid] | 175 |  | 459 | 526 | 469 | 485 | 122 |  |

Source: article PMC7830743 (Journal of medicinal chemistry, 2020)
